From article PMC12724200 (mSphere, 2025)
Converted amounts (≈) assume the structure as drawn. Like-named read-outs stand apart in the source and are kept apart here.

Columns and labels:
[1] = test system: Staphylococcus aureus; test: microbe, parasite or virus in culture; assay type: cell-based
[2] = test system: M. tuberculosis H37Rv; test: microbe, parasite or virus in culture; assay type: cell-based, Mycobacterium tuberculosis
[3] = test system: A549; conditions: human
[4] = test system: OCT313-resistant BCG; test: microbe, parasite or virus in culture; assay type: cell-based, Mycobacterium bovis BCG
[5] = test system: THP-1; conditions: human
[6] = test system: M. bovis BCG Tokyo 172; test: microbe, parasite or virus in culture; assay type: cell-based, Mycobacterium bovis BCG
[7] = test system: M. bovis; test: microbe, parasite or virus in culture; assay type: cell-based, Mycobacterium bovis
[8] = test system: M. avium 104; test: microbe, parasite or virus in culture; assay type: cell-based, Mycobacterium avium
[9] = test system: Escherichia coli DH5α; test: microbe, parasite or virus in culture; assay type: cell-based
[10] = test system: MRC-5; conditions: human
[11] = test system: M. smegmatis mc^2 155; test: microbe, parasite or virus in culture; assay type: cell-based, Mycobacterium smegmatis
[12] = biological target: recombinant wild-type M. bovis BCG PTA (Mycobacterium bovis, UniProt A0A679LAX5); test: biochemical; assay type: biochemical
Chain of recombinant wild-type M. bovis BCG PTA (A0A679LAX5 1-690): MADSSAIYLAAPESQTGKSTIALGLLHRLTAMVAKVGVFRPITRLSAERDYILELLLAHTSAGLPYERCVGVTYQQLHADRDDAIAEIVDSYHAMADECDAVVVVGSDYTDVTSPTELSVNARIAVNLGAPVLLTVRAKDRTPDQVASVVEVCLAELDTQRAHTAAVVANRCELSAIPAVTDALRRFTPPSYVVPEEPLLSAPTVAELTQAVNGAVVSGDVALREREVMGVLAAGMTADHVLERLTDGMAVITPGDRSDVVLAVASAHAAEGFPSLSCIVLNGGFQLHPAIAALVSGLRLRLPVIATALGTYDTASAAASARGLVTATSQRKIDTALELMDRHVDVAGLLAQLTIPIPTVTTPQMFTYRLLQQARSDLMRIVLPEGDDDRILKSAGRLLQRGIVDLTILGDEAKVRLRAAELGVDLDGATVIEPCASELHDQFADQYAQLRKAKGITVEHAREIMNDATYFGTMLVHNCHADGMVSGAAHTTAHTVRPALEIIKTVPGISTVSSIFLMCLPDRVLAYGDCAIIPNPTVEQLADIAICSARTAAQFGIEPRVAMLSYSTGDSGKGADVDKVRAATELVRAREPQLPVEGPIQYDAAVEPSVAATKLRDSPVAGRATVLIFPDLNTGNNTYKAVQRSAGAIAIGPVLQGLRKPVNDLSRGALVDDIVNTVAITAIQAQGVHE

[13] = test system: M. bovis BCG Tokyo 172; assay type: cell-based, Mycobacterium bovis BCG
[14] = biological target: L. mesenteroides PTA (Leuconostoc mesenteroides, UniProt Q03W64); assay type: biochemical
Chain of L. mesenteroides PTA (Q03W64 1-326): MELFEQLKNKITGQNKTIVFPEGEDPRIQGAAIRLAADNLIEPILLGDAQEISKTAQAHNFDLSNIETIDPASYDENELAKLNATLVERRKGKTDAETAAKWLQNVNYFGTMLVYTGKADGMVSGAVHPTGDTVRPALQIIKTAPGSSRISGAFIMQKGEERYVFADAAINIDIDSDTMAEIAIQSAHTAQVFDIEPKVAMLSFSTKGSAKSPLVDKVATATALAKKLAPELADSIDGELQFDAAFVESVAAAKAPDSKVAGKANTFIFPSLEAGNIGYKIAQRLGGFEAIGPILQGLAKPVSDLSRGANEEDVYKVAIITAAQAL

[15] = test system: OCT313-resistant BCG strains OCTR_3 and OCTR_4; assay type: cell-based, Mycobacterium bovis BCG
[16] = Mycobacterium tuberculosis, H37RV
[17] = Mycobacterium tuberculosis, H37RV, 336 h
[18] = Mycobacterium tuberculosis variant bovis BCG, BCG, 336 h
[19] = Mycobacterium tuberculosis variant bovis, 336 h
[20] = Mycobacterium avium, 104, 168 h
[21] = Mycolicibacterium smegmatis, MC^2155, 72 h

| Compound | MIC ([1]; Staphylococcus aureus) | MIC [2, 16] | MIC [2, 17] | 85% survival conc. [3] | LC50/MIC [3] | MIC [4, 18] | 85% survival conc. [5] | LC50/MIC [5] | MIC [6, 18] | MIC [7, 19] | MIC [8, 20] | MIC ([9]; Escherichia coli) | 85% survival conc. [10] | LC50/MIC [10] | MIC [11, 21] | Antibacterial activity in Wayne dormancy model [13] | also measured |
| --- | --- | --- | --- | --- | --- | --- | --- | --- | --- | --- | --- | --- | --- | --- | --- | --- | --- |
| CC[C@@H](CO)NCCN[C@@H](CC)CO [EB, ethambutol] | > 100 µg/mL | 2.5 µg/mL (≈ 12.2 µM) | 2.5 µg/mL (≈ 12.2 µM) | 1,000 μg/mL | 1,434 | 3 µg/mL (≈ 14.7 µM) | 500 µg/mL | 916 | 3 µg/mL (≈ 14.7 µM) | 0.78 µg/mL (≈ 3.82 µM) | 1.6 µg/mL (≈ 7.83 µM) | > 100 µg/mL | 250 µg/mL | 111 | 12.5 µg/mL (≈ 61.2 µM) | – | – |
| CC(=O)N[C@@H]1[C@@H](O)[C@H](O)[C@@H](CO)O[C@@H]1O [GlcNAc, N-acetyl-D-glucosamine] | – | – | – | – | – | – | – | – | – | – | – | – | – | – | – | – | MIC [1]: >1,000 μg/mL; MIC [2]: >1,000 μg/mL; MIC [4]: >1,000 μg/mL; MIC [6]: >1,000 μg/mL; MIC [7]: >1,000 μg/mL; MIC [8]: >1,000 μg/mL; MIC [9]: >1,000 μg/mL; MIC [11]: >1,000 μg/mL; Inhibition of PTA enzyme activity (in words) [12]: not sufficient to inhibit enzyme activity |
| NNC(=O)c1ccncc1 [INH, isoniazid] | > 100 µg/mL | 0.04 µg/mL (≈ 0.292 µM) | 0.04 µg/mL (≈ 0.292 µM) | 1,000 μg/mL | 77,277 | 0.04 µg/mL (≈ 0.292 µM) | 100 µg/mL | 53,613 | 0.04 µg/mL (≈ 0.292 µM) | 0.04 µg/mL (≈ 0.292 µM) | 1.56 µg/mL (≈ 11.4 µM) | > 100 µg/mL | 250 µg/mL | 7,325 | 3.13 µg/mL (≈ 22.8 µM) | showed reduced activity | – |
| Cc1ncc([N+](=O)[O-])n1CCO [MTZ, metronidazole] | – | – | – | – | – | – | – | – | – | – | – | – | – | – | – | showed antibacterial activity | – |
| CCN1C(=O)C=CC1=O [NEM, N-ethylmaleimide] | – | – | – | – | – | – | – | – | – | – | – | – | – | – | – | – | IC50 [14]: 50.9 µM; IC50 [12]: 14.5 µM |
| CC(=O)N[C@@H]1[C@@H](O)[C@H](O)[C@@H](CO)O[C@H]1SC(=S)N(C)C [OCT313, 2-acetamido-2-deoxy-β-D-glucopyranosyl N,N-dimethyldithiocarbamate] | > 100 µg/mL | 25 µg/mL (≈ 77.1 µM) | 25 µg/mL (≈ 77.1 µM) | 500 µg/mL | 188 | > 200 µg/mL | 1,250 μg/mL | 356 | 12.5 µg/mL (≈ 38.5 µM) | 31.3 µg/mL (≈ 96.5 µM) | > 100 µg/mL | > 100 µg/mL | 2,500 μg/mL | 242 | > 100 µg/mL | susceptible to OCT313 in a dose-dependent manner | Change of 50% lethal concentration (LD50) by sugar derivatization [3]: 196 fold; MIC ([4]; Mycobacterium tuberculosis variant bovis BCG, BCG): > 100 µg/mL; Change of 50% lethal concentration (LD50) by sugar derivatization [5]: 27 fold; IC50 [14]: > 1000 µM; Change of 50% lethal concentration (LD50) by sugar derivatization [10]: 550 fold; IC50 [12]: 2.79 µM; Inhibition pattern (Lineweaver-Burk plots) [12]: mixed inhibition |
| CO[C@H]1/C=C/O[C@@]2(C)Oc3c(C)c(O)c4c(O)c(c(/C=N/N5CCN(C)CC5)c(O)c4c3C2=O)NC(=O)/C(C)=C\C=C\[C@H](C)[C@H](O)[C@@H](C)[C@@H](O)[C@@H](C)[C@H](OC(C)=O)[C@@H]1C [RFP, rifampicin] | 0.02 µg/mL (≈ 0.0243 µM) | 0.004 µg/mL (≈ 0.00486 µM) | 0.004 µg/mL (≈ 0.00486 µM) | 10 µg/mL | 44,510 | 0.01 µg/mL (≈ 0.0122 µM) | 10 µg/mL | 16,256 | 0.01 µg/mL (≈ 0.0122 µM) | 0.016 µg/mL (≈ 0.0194 µM) | 0.25 µg/mL (≈ 0.304 µM) | 12.5 µg/mL (≈ 15.2 µM) | 10 µg/mL | 16,250 | 1.56 µg/mL (≈ 1.9 µM) | – | – |
| [H]/N=C(/N)N[C@H]1[C@H](O)[C@@H](O)[C@H](O[C@@H]2O[C@@H](C)[C@](O)(C=O)[C@H]2O[C@@H]2O[C@@H](CO)[C@H](O)[C@@H](O)[C@@H]2NC)[C@@H](N/C(N)=N\[H])[C@@H]1O [SM, streptomycin] | 6.25 µg/mL (≈ 10.7 µM) | 0.4 µg/mL (≈ 0.688 µM) | 0.39 µg/mL (≈ 0.671 µM) | 5,000 μg/mL | 31,350 | 0.2 µg/mL (≈ 0.344 µM) | 100 µg/mL | 17,908 | 0.2 µg/mL (≈ 0.344 µM) | 0.2 µg/mL (≈ 0.344 µM) | 3.13 µg/mL (≈ 5.38 µM) | 25 µg/mL (≈ 43 µM) | 1,000 μg/mL | 4,175 | 0.39 µg/mL (≈ 0.671 µM) | – | – |
| Dimethyldithiocarbamate [DMDC] | – | – | – | – | – | – | – | – | – | – | – | – | – | – | – | – | MIC [1]: 25 µg/mL; MIC [2]: 1.56 µg/mL; MIC [4]: 12.5 µg/mL; MIC [6]: 3.13 µg/mL; Antibacterial activity in Wayne dormancy model [15]: similar; MIC [7]: 3.13 µg/mL; MIC [9]: 200 µg/mL; MIC [11]: >100 µg/mL; Inhibition of PTA enzyme activity (in words) [12]: did not inhibit PTA |
